Measurements reported in publication doi:10.1101/2022.09.19.508609v1 (biorxiv, 2022).

Legend:
AgamOr53 + AgamOrco = molecular target: T1, AgamOr53 + AgamOrco (Anopheles gambiae, UniProt A0ABK8FS74); experiment: two-electrode voltage clamp, Xenopus oocytes; format: cell-based
T1 sequence (A0ABK8FS74 1-384): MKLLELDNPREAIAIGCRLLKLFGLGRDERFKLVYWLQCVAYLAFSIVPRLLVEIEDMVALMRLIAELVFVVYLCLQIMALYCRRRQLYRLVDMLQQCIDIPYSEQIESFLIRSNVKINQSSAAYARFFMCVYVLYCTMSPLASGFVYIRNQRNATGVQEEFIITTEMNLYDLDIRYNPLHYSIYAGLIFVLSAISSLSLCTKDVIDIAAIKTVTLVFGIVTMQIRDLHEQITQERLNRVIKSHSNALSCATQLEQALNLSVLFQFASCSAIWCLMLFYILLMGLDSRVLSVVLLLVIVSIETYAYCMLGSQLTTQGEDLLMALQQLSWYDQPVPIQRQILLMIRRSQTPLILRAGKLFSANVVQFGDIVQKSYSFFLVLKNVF
T1 sequence (Q7QCC7 1-478 partner): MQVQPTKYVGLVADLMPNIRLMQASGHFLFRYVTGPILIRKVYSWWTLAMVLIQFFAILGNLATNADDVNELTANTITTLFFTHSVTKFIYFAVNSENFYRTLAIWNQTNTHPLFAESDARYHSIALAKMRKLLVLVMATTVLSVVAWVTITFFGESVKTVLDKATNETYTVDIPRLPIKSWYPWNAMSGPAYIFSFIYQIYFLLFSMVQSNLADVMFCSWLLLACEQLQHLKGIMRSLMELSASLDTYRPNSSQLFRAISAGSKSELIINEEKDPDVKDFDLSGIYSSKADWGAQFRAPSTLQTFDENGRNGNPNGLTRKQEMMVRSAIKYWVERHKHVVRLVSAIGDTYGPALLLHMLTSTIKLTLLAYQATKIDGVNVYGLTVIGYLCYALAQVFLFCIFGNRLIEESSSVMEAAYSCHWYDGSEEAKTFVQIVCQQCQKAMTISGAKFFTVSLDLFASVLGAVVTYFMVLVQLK

AgamOr29 + AgamOrco = molecular target: T2, AgamOr29 + AgamOrco (Anopheles gambiae, UniProt A0A1S4H074); experiment: two-electrode voltage clamp, Xenopus oocytes; format: cell-based
T2 sequence (A0A1S4H074 1-384): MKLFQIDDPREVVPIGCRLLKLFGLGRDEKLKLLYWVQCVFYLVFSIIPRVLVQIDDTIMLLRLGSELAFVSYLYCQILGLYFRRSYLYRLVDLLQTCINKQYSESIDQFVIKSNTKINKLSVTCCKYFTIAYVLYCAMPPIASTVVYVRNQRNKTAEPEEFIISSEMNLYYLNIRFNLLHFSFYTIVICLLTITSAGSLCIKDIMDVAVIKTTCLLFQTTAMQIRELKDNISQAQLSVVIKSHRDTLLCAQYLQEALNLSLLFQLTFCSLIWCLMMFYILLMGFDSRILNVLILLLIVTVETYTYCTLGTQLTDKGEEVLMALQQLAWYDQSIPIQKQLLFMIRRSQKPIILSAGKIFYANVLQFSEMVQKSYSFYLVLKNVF
T2 sequence (Q7QCC7 1-478 partner): T1 sequence (Q7QCC7 1-478 partner)

SMILES | EC50 (AgamOr53 + AgamOrco) | EC50 (AgamOr29 + AgamOrco)
C=C[C@](C)(O)CCC=C(C)C [(R)-(–)-linalool] | 14.9 µM | 14.7 µM
C=C[C@@](C)(O)CCC=C(C)C [(S)-(+)-linalool] | 19.1 µM | 7.1 µM
